Measurements from ChEMBL document CHEMBL1201862, “PubChem BioAssay data set” (2004).
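Interpolation was linear, between the two tested concentrations surrounding the appropriate level; five concentrations were tested over 48 hours in 96-well plates. At the GI50, growth is halved.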 Calls of active or inactive are those of the source. Rule as the data show it: active = GI50 up to about 1.1 µM and inactive = higher.

Legend:
Assay in all cases: NCI tumour cell line growth inhibition, 48 h
A549 = tested on: A549
EKVX = tested on: EKVX
HL-60 = tested on: HL-60
HOP-62 = tested on: HOP-62
HOP-92 = tested on: HOP-92
IGROV-1 = tested on: IGROV-1
K562 = tested on: K562
NCI-H522 = tested on: NCI-H522
NCI/ADR-RES = tested on: NCI/ADR-RES
OVCAR-4 = tested on: OVCAR-4
OVCAR-5 = tested on: OVCAR-5
OVCAR-8 = tested on: OVCAR-8
SF-268 = tested on: SF-268
SK-MEL-2 = tested on: SK-MEL-2
SK-OV-3 = tested on: SK-OV-3
SN12C = tested on: SN12C
SNB-19 = tested on: SNB-19
SW-620 = tested on: SW-620
UACC-62 = tested on: UACC-62
SNB-75 = tested on: SNB-75

Row | Structure (SMILES) | GI50 (A549) | GI50 (EKVX) | GI50 (HL-60) | GI50 (HOP-62) | GI50 (HOP-92) | GI50 (IGROV-1) | GI50 (K562) | GI50 (NCI-H522) | GI50 (NCI/ADR-RES) | GI50 (OVCAR-4) | GI50 (OVCAR-5) | GI50 (OVCAR-8) | GI50 (SF-268) | GI50 (SK-MEL-2) | GI50 (SK-OV-3) | GI50 (SN12C) | GI50 (SNB-19) | GI50 (SW-620) | GI50 (UACC-62) | GI50 (SNB-75)
1 | CN(C)C(=O)NCCN1CCCCCc2ccccc21 | > 100 µM (inactive) | > 100 µM (inactive) | 31.3 µM (inactive) | > 100 µM (inactive) | 32.4 µM (inactive) | > 100 µM (inactive) | > 100 µM (inactive) | > 100 µM (inactive) | > 100 µM (inactive) | 78 µM (inactive) | > 100 µM (inactive) | > 100 µM (inactive) | > 100 µM (inactive) | 89.7 µM (inactive) | > 100 µM (inactive) | > 100 µM (inactive) | > 100 µM (inactive) | > 100 µM (inactive) | > 100 µM (inactive) | –
2 | CC(=O)Nc1ccc(C(=O)NN2C(=O)C(Cl)/C2=C/c2ccco2)cc1 (centres undefined) | > 100 µM (inactive) | – | > 100 µM (inactive) | > 100 µM (inactive) | > 100 µM (inactive) | > 100 µM (inactive) | > 100 µM (inactive) | > 100 µM (inactive) | – | – | > 100 µM (inactive) | > 100 µM (inactive) | > 100 µM (inactive) | > 100 µM (inactive) | > 100 µM (inactive) | – | > 100 µM (inactive) | > 100 µM (inactive) | > 100 µM (inactive) | > 100 µM (inactive)
3 | O=C1C=CC(=O)c2c(Cl)ccc(O)c21 | > 81.8 µM (inactive) | 21.8 µM (inactive) | 2.96 µM (inactive) | > 100 µM (inactive) | 2.75 µM (inactive) | 14.6 µM (inactive) | 3.48 µM (inactive) | 13.9 µM (inactive) | 18.7 µM (inactive) | 18.5 µM (inactive) | > 54.1 µM (inactive) | 20.4 µM (inactive) | 18.4 µM (inactive) | 37.8 µM (inactive) | > 100 µM (inactive) | 21.1 µM (inactive) | > 100 µM (inactive) | 11.6 µM (inactive) | 16.8 µM (inactive) | 28.5 µM (inactive)
4 | Cc1cc(C(=O)NCCN(C)C)c2nc3ccccc3cc2c1 | 0.867 µM (active) | 0.594 µM (active) | 0.871 µM (active) | 1.68 µM (inactive) | 1.45 µM (inactive) | 2.39 µM (inactive) | 2.44 µM (inactive) | – | 1.1 µM (active) | 3.02 µM (inactive) | 1.98 µM (inactive) | 1.25 µM (inactive) | 2.77 µM (inactive) | 2.69 µM (inactive) | 2.16 µM (inactive) | 1.59 µM (inactive) | 2.01 µM (inactive) | 0.889 µM (active) | 1.52 µM (inactive) | 3.13 µM (inactive)
5 | ClCc1ccc2ccc3ccc(CCl)nc3c2n1 | 4.76 µM (inactive) | 15.6 µM (inactive) | 1.8 µM (inactive) | 4.29 µM (inactive) | 2.09 µM (inactive) | 1.7 µM (inactive) | 3.18 µM (inactive) | 1.76 µM (inactive) | 1.71 µM (inactive) | 5.65 µM (inactive) | 2.85 µM (inactive) | 3.36 µM (inactive) | 4.19 µM (inactive) | 1.77 µM (inactive) | 8.89 µM (inactive) | 2.36 µM (inactive) | 11.9 µM (inactive) | 2.5 µM (inactive) | 1.34 µM (inactive) | 1.95 µM (inactive)
6 | C=CCCN1CCc2c([nH]c3ccccc23)C1C(=O)O (centres undefined) | > 100 µM (inactive) | > 100 µM (inactive) | 93.1 µM (inactive) | > 100 µM (inactive) | > 100 µM (inactive) | > 100 µM (inactive) | > 100 µM (inactive) | > 100 µM (inactive) | – | > 100 µM (inactive) | > 100 µM (inactive) | – | 78.3 µM (inactive) | > 100 µM (inactive) | > 100 µM (inactive) | > 100 µM (inactive) | > 100 µM (inactive) | > 100 µM (inactive) | > 100 µM (inactive) | 26.9 µM (inactive)
7 | COc1cc2c(ccc3c4cc(OC)c(OC)cc4c[n+](C)c23)cc1O [FAGARONINE] | 19.9 µM (inactive) | 39.6 µM (inactive) | 48 µM (inactive) | 2.3 µM (inactive) | 23.6 µM (inactive) | 23.2 µM (inactive) | 4.26 µM (inactive) | 0.131 µM (active) | 63.2 µM (inactive) | 12.2 µM (inactive) | 24 µM (inactive) | 1.69 µM (inactive) | 0.0588 µM (active) | 41.4 µM (inactive) | 21.6 µM (inactive) | 0.726 µM (active) | 1.15 µM (inactive) | 12.7 µM (inactive) | 1.23 µM (inactive) | 2.9 µM (inactive)
8 | C=C1C(=O)OC2CC1CCC1(C)OC1CCC(C)=CCCC2(C)O (centres undefined) | 8.36 µM (inactive) | 6.87 µM (inactive) | 0.927 µM (active) | 10.3 µM (inactive) | 2.26 µM (inactive) | 7.18 µM (inactive) | 1.83 µM (inactive) | 1.06 µM (active) | 1.8 µM (inactive) | 4.78 µM (inactive) | 10 µM (inactive) | 2.33 µM (inactive) | 5.36 µM (inactive) | 6.12 µM (inactive) | 16.7 µM (inactive) | 5.08 µM (inactive) | 14.1 µM (inactive) | 1.12 µM (inactive) | 3.4 µM (inactive) | 7.08 µM (inactive)
9 | CON(C)C(C#N)=C(C#N)C#N | > 10 µM (inactive) | > 10 µM (inactive) | > 10 µM (inactive) | > 10 µM (inactive) | – | > 10 µM (inactive) | > 10 µM (inactive) | > 10 µM (inactive) | > 10 µM (inactive) | > 10 µM (inactive) | > 10 µM (inactive) | > 10 µM (inactive) | > 10 µM (inactive) | > 10 µM (inactive) | > 10 µM (inactive) | > 10 µM (inactive) | > 10 µM (inactive) | > 10 µM (inactive) | > 10 µM (inactive) | > 10 µM (inactive)
10 | CCOC(=O)c1cc(Br)c(-c2cc(C)no2)[nH]1 | 24.9 µM (inactive) | 34.8 µM (inactive) | 24.7 µM (inactive) | – | 29.9 µM (inactive) | – | – | 20.7 µM (inactive) | 30.4 µM (inactive) | 23.3 µM (inactive) | 49 µM (inactive) | 35.8 µM (inactive) | 31.6 µM (inactive) | 34.4 µM (inactive) | 41.6 µM (inactive) | 32 µM (inactive) | 80.4 µM (inactive) | 30 µM (inactive) | 35.2 µM (inactive) | 23.9 µM (inactive)
11 | CN(CCO)Cc1ncccc1O | > 100 µM (inactive) | > 100 µM (inactive) | 64.3 µM (inactive) | > 100 µM (inactive) | > 100 µM (inactive) | > 100 µM (inactive) | 0.495 µM (active) | > 100 µM (inactive) | > 100 µM (inactive) | > 100 µM (inactive) | > 100 µM (inactive) | > 100 µM (inactive) | > 100 µM (inactive) | > 100 µM (inactive) | > 100 µM (inactive) | – | > 100 µM (inactive) | > 100 µM (inactive) | > 100 µM (inactive) | > 100 µM (inactive)
12 | O=C1C(Cl)N(c2ccccc2[N+](=O)[O-])C1c1c[nH]c2ccccc12 (centres undefined) | > 100 µM (inactive) | 83.6 µM (inactive) | > 100 µM (inactive) | > 100 µM (inactive) | 81.3 µM (inactive) | > 100 µM (inactive) | > 100 µM (inactive) | > 100 µM (inactive) | – | > 100 µM (inactive) | 1.36 µM (inactive) | > 100 µM (inactive) | > 100 µM (inactive) | > 100 µM (inactive) | > 100 µM (inactive) | > 100 µM (inactive) | > 100 µM (inactive) | > 100 µM (inactive) | > 100 µM (inactive) | 27.4 µM (inactive)
13 | Cn1cc(-c2csc(-c3cn(C)c4ccccc34)n2)c2ccccc21 | 37.6 µM (inactive) | – | > 100 µM (inactive) | 17.6 µM (inactive) | 20.8 µM (inactive) | 27 µM (inactive) | 11.2 µM (inactive) | 76.7 µM (inactive) | > 100 µM (inactive) | 22.2 µM (inactive) | 95.9 µM (inactive) | 25.6 µM (inactive) | 58.2 µM (inactive) | 38.8 µM (inactive) | – | 47.8 µM (inactive) | 42.7 µM (inactive) | 59.4 µM (inactive) | 32.2 µM (inactive) | –
14 | COc1ccc(CCn2cncn2)cc1 | > 100 µM (inactive) | > 100 µM (inactive) | > 100 µM (inactive) | > 100 µM (inactive) | > 100 µM (inactive) | > 100 µM (inactive) | > 100 µM (inactive) | > 100 µM (inactive) | – | > 100 µM (inactive) | > 100 µM (inactive) | – | > 100 µM (inactive) | – | > 100 µM (inactive) | > 100 µM (inactive) | > 100 µM (inactive) | > 100 µM (inactive) | > 100 µM (inactive) | > 100 µM (inactive)
15 | CC(=O)OCc1c(C)c2ccccc2n1C(C)=O | 53 µM (inactive) | > 100 µM (inactive) | 23.9 µM (inactive) | 63.1 µM (inactive) | 98.6 µM (inactive) | 36.8 µM (inactive) | 23.7 µM (inactive) | 20 µM (inactive) | – | 32.1 µM (inactive) | > 100 µM (inactive) | 49 µM (inactive) | 43.6 µM (inactive) | 21 µM (inactive) | 81.3 µM (inactive) | 35.7 µM (inactive) | > 100 µM (inactive) | 47 µM (inactive) | 36.3 µM (inactive) | 82.6 µM (inactive)
